Results: patent publication US7943670B2, “Liquid formulations of ractopamine” (Eli Lilly and Company, priority 2004, dated 2011)
Structures can show the parent of a compound that is named as a salt.

Columns and labels:
Format in all cases: physicochemical
[1] = Chemical stability on storage: related substances by chromatogram comparison
[2] = Physical stability on storage (precipitation / remaining in solution); conditions: for Comment: physical stability on storage: 10% ractopamine; for physical stability on storage: 5° C. storage
[3] = Solubility determination of ractopamine HCl in liquid agents (visual, 1-dram vials)
Procedure: Solubility determinations are performed in 1-dram vials. Add ractopamine HCl to a vial containing a liquid agent to give a final w/w ratio of 10% ractopamine HCl to liquid agent. Mix the solution vigorously on a vortex mixer for 2 to 6 minutes. After the mixing period, visually, assess whether the ractopamine dissolves in the liquid agent or whether insoluble material (cloudy solution or two distinct phases) remains in the vial. If the solubility is less than 10%, add additional liquid agent to dilute the ractopamine HCl to a 5-8% range. Repeat the mixing procedure and assess whether the ractopamine is soluble in the liquid agent or whether it remains insoluble at the lower concentration. Apply heat (from room temperature up to 60° C.) as needed to aid solubilization. Allow heated samples to cool to room temperature to assess solubility by visual observation for precipitant or cloudiness.

[4] = Solubility of ractopamine (water, PG, PEG vehicle systems)

Compound: CC(CCc1ccc(O)cc1)NCC(O)c1ccc(O)cc1 (stereo not drawn) [ractopamine HCl]
- Comment: stability ([1]; Acetic Acid Glacial (50% solution), buffered 10% formulation, generation of new related subs in stability storage): Stability discontinued
- Comment: stability ([1]; Lactic Acid (85% solution), 10% formulation by heating and buffering pH, generation of new related subs in stability storage): Stability discontinued
- Comment: new related sub peaks in stability studies ([1]; MPEG solvents (MPEG 350, 550)): number of new related sub
- Comment: reaction with solvent ([1]; Methanol, forms methoxy ractopamine related substance): Methanol reacts with
- Comment: new related sub peaks in stability studies ([1]; PEG solvents (PEG 200, 300)): number of new related sub
- Comment: new related substance peaks in stability studies ([1]; Pluronic L61 to water at 50/50, 10% ractopamine): a number of new related
- Comment: stability ([1]; Propionic Acid (20% solution), generated a number of large related sub peaks): Stability discontinued -
- Comment: physical stability on storage ([2]; Polyoxyethylene 20 Sorbitan Monolaurate to water below 50/50, prolonged storage at 5° C.): below 50/50 precipitate after
- Comment: physical stability on storage ([2]; Polyoxyethylene-20-Sorbitan Monooleate to water below 50/50, prolonged storage at 5° C.): below 50/50 precipitate after
- Comment: physical stability on storage ([2]; Polyoxyl 35 Castor Oil to water at 50/50, short term (3 months) storage at 5° C.): somewhat viscous and precipitate
- Solubility @ RT ([3]; 1,3 Dioxolane): <5%
- Solubility @ RT ([3]; 1-Butanol): <10%
- Solubility @ RT ([3]; 1-Methyl-2-Pyrrolidinone (Pharmasolve)): <5%
- Solubility @ RT ([3]; 2-Pyrrolidone (2-Pyrol)): ≦5%
- Solubility @ RT ([3]; 4-Methyl-1-3Dioxolane): <5%
- Solubility @ RT ([3]; Acetaldehyde Phenethyl Propyl Acetal (Acetal R)): <10%
- Solubility @ RT ([3]; Acetic Acid Glacial (50% solution)): ≧10%
- Solubility @ RT ([3]; Acetone): <10%
- Solubility @ RT ([3]; Acetophenone): <10%
- Solubility @ RT ([3]; Agrimax 3 (2-pyrrolidinone, 1-Octyl 2-Pyrrolidinone, 1-Ethenylhexadecyl-, Homopolymer Sulfuric Acid Monododecyl Ester Sodium Salt)): <5%
- Solubility @ RT ([3]; AgsolEx 8): <5%
- Solubility @ RT ([3]; Amyl Acetate): <5%
- Solubility @ RT ([3]; Aromatic 100): <5%
- Solubility @ RT ([3]; Aromatic 200 (SC Solvent 200)): <5%
- Solubility @ RT ([3]; Benzoic Acid (0.3% solution)): <10%
- Solubility @ RT ([3]; Benzyl Alcohol): ≧5%
- Solubility @ RT ([3]; Block Copolymer Pluronic L31): ≦10%
- Solubility @ RT ([3]; Block Copolymer Pluronic L61, 50/50 water): ≧10%
- Solubility @ RT ([3]; Block Copolymer Pluronic L61, Neat (Viscous)): ≦10%
- Solubility @ RT ([3]; Caprylic/Capric Triglycerides, BP, FP (Labrafac CC)): <5%
- Solubility @ RT ([3]; Caprylic/capric triglyceride (Migylol 810)): <8%
- Solubility @ RT ([3]; Centrapour Clear Fry Oil): <5%
- Solubility @ RT ([3]; Citric Acid (50% solution)): <5%
- Solubility @ RT ([3]; Corn Oil (Mazzola)): <8%
- Solubility @ RT ([3]; Cyclohexanone): <10%
- Solubility @ RT ([3]; D-Gluconic Acid): <10%
- Solubility @ RT ([3]; D-Glucuronic Acid (20% solution)): <5%
- Solubility @ RT ([3]; Dichloromethane): <10%
- Solubility @ RT ([3]; Diethylene Glycol): ≧10%
- Solubility @ RT ([3]; Diethylenetriamine (DETA)): ≧10%
- Solubility @ RT ([3]; Dimethyl Isosorbide): <8%
- Solubility @ RT ([3]; Dipropylene glycol n-butyl ether): <10%
- Solubility @ RT ([3]; Ethanolamine): ≧10%
- Solubility @ RT ([3]; Ethyl Acetate): <5%
- Solubility @ RT ([3]; Ethyl Alcohol): <10%
- Solubility @ RT ([3]; Ethyl Lactate): <5%
- Solubility @ RT ([3]; Ethylene Glycol): ≧10%
- Solubility @ RT ([3]; Ethylenediamine): ≧20%
- Solubility @ RT ([3]; Forward DC): <5%
- Solubility @ RT ([3]; Fumaric Acid): <5%
- Solubility @ RT ([3]; Gamma Butylactone): <5%
- Solubility @ RT ([3]; Glutamic Acid (20% solution)): <5%
- Solubility @ RT ([3]; Glycerol Formal): ≦5%
- Solubility @ RT ([3]; Glyceryl and polyethylene glycol esters (Labrasol)): <5%
- Solubility @ RT ([3]; Glycol Ether PM): <5%
- Solubility @ RT ([3]; Hexane): <5%
- Solubility @ RT ([3]; Hydroxypropyl β-Cyclodextrin (Trappsol)): <10%
- Solubility @ RT ([3]; Isophorone): <10%
- Solubility @ RT ([3]; Isopropyl Myristrate (Emerest 2314)): <8%
- Solubility @ RT ([3]; L-Malic Acid (20% solution)): <5%
- Solubility @ RT ([3]; L-Tartaric Acid 20% solution): <5%
- Solubility @ RT ([3]; Lactic Acid (85% solution)): ≦10%
- Solubility @ RT ([3]; Maleic Acid (20% Solution)): ≦10%
- Solubility @ RT ([3]; Malonic Acid): ≧5%
- Solubility @ RT ([3]; Medium chain triglyceride (Migylol 812)): <8%
- Solubility @ RT ([3]; Methanol): ≧10%
- Solubility @ RT ([3]; Methyl Caprylate-Caprate (Emery 2209)): <8%
- Solubility @ RT ([3]; Methyl Oleate (Emery 2301)): <8%
- Solubility @ RT ([3]; Mineral Oil, QA246U): <5%
- Solubility @ RT ([3]; Mono-diglyceride of caprylic/capric fatty acids (Capmul MCM)): <8%
- Solubility @ RT ([3]; Monomethylated Polyethylene Glycol MPEG 350, 50/50 water): ≧10%
- Solubility @ RT ([3]; Monomethylated Polyethylene Glycol MPEG 350, Neat): ≦10%
- Solubility @ RT ([3]; Monomethylated Polyethylene Glycol MPEG 550, 50/50 water): ≧10%
- Solubility @ RT ([3]; Monomethylated Polyethylene Glycol MPEG 550, Neat): ≦10%
- Solubility @ RT ([3]; N,N, Dimethylacetamide): <5%
- Solubility @ RT ([3]; Nonylphenol Ethoxylate, POE-10 (Makon 10)): <5%
- Solubility @ RT ([3]; Oleic Acid (Priolene 6933)): <5%
- Solubility @ RT ([3]; Oleoyl Macrogolglycerides EP (Labrafil M 1944 CS)): <5%
- solubility ([3]; PCO to water 50:50 w/w): greater than 10%
- solubility ([3]; PSO to water 50:50 w/w): greater than 10%
- Solubility @ RT ([3]; Petroleum Ether): <5%
- Solubility @ RT ([3]; Petroleum distillates (naphtha), Panasol AN-2K): <5%
- Solubility @ RT ([3]; Phosphoric Acid (85% Solution)): <5%
- Solubility @ RT ([3]; Polyethylene Glycol Dimethyl Ether (DMPEG-350)): <5%
- Solubility @ RT ([3]; Polyethylene Glycol PEG 200, 50/50 water): ≧10%
- Solubility @ RT ([3]; Polyethylene Glycol PEG 200, Neat): ≦10%
- Solubility @ RT ([3]; Polyethylene Glycol PEG 300, 50/50 water): ≧10%
- Solubility @ RT ([3]; Polyethylene Glycol PEG 300, Neat): ≦10%
- Solubility @ RT ([3]; Polyethylene Glycol PEG 400, Neat (Viscous)): ≦10%
- Solubility @ RT ([3]; Polyglycol P-2000): <5%
- Solubility @ RT ([3]; Polyoxyethylene-20-Sorbitan Monolaurate (Tween 20), 50/50 water): ≧10%
- Solubility @ RT ([3]; Polyoxyethylene-20-Sorbitan Monolaurate (Tween 20), Neat (Viscous)): ≦10%
- Solubility @ RT ([3]; Polyoxyethylene-20-Sorbitan Monooleate (Tween 80), 50/50 water): ≧10%
- Solubility @ RT ([3]; Polyoxyethylene-20-Sorbitan Monooleate (Tween 80), Neat (Viscous)): ≦10%
- Solubility @ RT ([3]; Polyoxyl 35 Castor Oil (Cremophor EL), 50/50 water): ≧10%
- Solubility @ RT ([3]; Polyoxyl 35 Castor Oil (Cremophor EL), Neat (Viscous)): ≦10%
- Solubility @ RT ([3]; Propionic Acid (20% solution)): ≧10%
- Solubility @ RT ([3]; Propylene Carbonate): <5%
- Solubility @ RT ([3]; Propylene Glycol Laurate (Lauroglycol FCC)): <5%
- Solubility @ RT ([3]; Propylene glycol diester of caprylic/capric acid (Migylol 840)): <8%
- Solubility @ RT ([3]; Soybean Oil Methyl Ester (Soy Gold 2000)): <8%
- Solubility @ RT ([3]; Succinic Acid (5% Solution)): <5%
- Solubility @ RT ([3]; Sunflower Oil (Wesson)): <8%
- Solubility @ RT ([3]; Tetrahydrfurfuryl Alcohol (THFA)): ≦10%
- Solubility @ RT ([3]; Tetrahydrofuran (THF)): <10%
- Solubility @ RT ([3]; Toulene): <10%
- Solubility @ RT ([3]; Triacetin): <5%
- Solubility @ RT ([3]; Trichloroethylene): <10%
- Solubility @ RT ([3]; Triglyceride of caprylic/capric and succinic acid (Migylol 829)): <8%
- Solubility @ RT ([3]; β-Cyclodextrin Sulfbutyl Ether 7 Sodium Salt 20% Solution (Captisol)): <10%

Compound: CC(CCc1ccc(O)cc1)NCC(O)c1ccc(O)cc1 (stereo not drawn) [ractopamine]
- reaction with solvent ([1]; PEG 200 / PEG 300 vehicle, not reversible under normal storage conditions): form covalently bonded related substances
- new related substances ([1]; aqueous PSL vehicle, storage up to 24 months at 25° C. and 12 months at 40° C.): < 0.2%
- new related substances ([1]; aqueous PSO vehicle, storage up to 24 months at 25° C.): < 0.2%
- formation of new related substances during storage ([1]; propylene glycol solutions, normal room temperature (~25° C.)): new related substances form slowly
- physical stability on storage ([2]; 10% ractopamine formulations, PSO to water below 50/50 w/w): precipitate out
- physical stability on storage ([2]; Ten percent ractopamine formulations, PCO to water below 50/50 w/w): precipitate out
- solubility ([3]; PSL to water 50:50 w/w): greater than 10%
- solubility ([4]; 100% propylene glycol (PG) or aqueous vehicle system containing PG): > 25 % w/w
- solubility (capable of dissolving) ([4]; vehicle 50% PG and 50% water, 25° C.): at least 10%
- concentration achievable in solution ([4]; vehicle system containing PEG 200, PEG 300, or both): > 20%
